Data published in patent US20260306421A1, “SYSTEMS AND METHODS FOR TRANSDERMAN PATCH DELIVERY” (VITAMAX PATCH WHOLESALER LLC, priority 2022, published 2026).
Marks after values point to notes of the source that are not given here.

Experiments:
Type in all cases: physicochemical
[1] = Solubility of cholecalciferol and cholecalciferol phosphate (disodium, acid); conditions: visual solubility
Protocol: Aliquots of cholecalciferol, cholecalciferol phosphate disodium, and cholecalciferol phosphate acid were added to a range of solvents including propylene glycol (PG), distilled water, methanol, ethyl acetate, ethanol, n-hexane, and the visual solubility was determined. A precise assessment of the saturation solubility was for some of the solvent systems was made using high-performance liquid chromatography (HPLC). In the HPLC solubility studies, an excess of each solute was added into 2 mL of each test solvent. The solutions were left stirring overnight at room temperature, (RT), 22° C. The saturation of the solutions was confirmed by the visual appearance of crystals and the drug suspensions were filtered through 0.2 μm cellulose acetate syringe filters, diluted with excess of mobile phase, and the solute concentration of each sample was assessed using HPLC.

[2] = Cholecalciferol phosphate adhesive suitability / compatibility screen
Protocol: Pre-formulation studies were performed to determine the compatibility of cholecalciferol phosphate (disodium and acid forms) with a range of adhesives (Table 38) that could be used to manufacture of the patch. The compatibility of the drugs with the patch excipients was assessed through checking the clarity of the mixture.
The compatibility of the adhesive with solvents and drug was established. The maximum drug loading in the adhesive following solvent evaporation was determined by mixing the drug, adhesive and co-solvents until a clear solution is obtained at different drug:adhesive ratios by placing a drop of solution onto patch backing sheet, leaving the slide to dry for 3-4 hours and examining the formed fil on the surface of the backings for evidence of drug crystals were assessed using KKmoon digital magnifier with LED light (China). Following patch optimization, the drug-adhesive solution was cast as 10×10 cm squares using of backing (3M™ Scotchpak™ Polyester Backing Film Laminate 9730). A sufficient volume of the adhesive was applied to achieve a target coating of 8 mg/cm^2. Following complete drying of the solvents, the adhesive layer was covered by M3 Release liner (SCOTCHPAK 9755), compressed, and then cut using 34 mm circular manual die cutter (SCP Super Cutting Press).

[3] = Chemical stability of cholecalciferol phosphate acid in skin permeation solvents; conditions: 24 h, 37° C.
Protocol: To assess the chemical stability of the cholecalciferol phosphate acid in the solutions employed in the skin permeation experiments a 1 mg/mL solution of cholecalciferol phosphate acid in propylene glycol (PG) was prepared and incubated at 37° C. for 24 hours. In addition 100 μg/mL cholecalciferol phosphate acid in 90:10 methanol:water and in 80:20 PG:water were also incubated at 37° C. for 24 hours. The concentration pre and post incubation was compared to determine the chemical stability during the permeation studies.

Solubility ([1]; solvent Ethanol): ~4* mg/mL
Solubility ([1]; solvent Ethyl acetate): <0.1* mg/mL
Solubility ([1]; solvent Hexane): ~40* mg/mL
Solubility ([1]; solvent Methanol (0.1% TFA)): <0.1* mg/mL
Solubility ([1]; solvent PG): ~10* mg/mL
Solubility ([2]; DURO-TAK 87-2052 0.268 mL, 10 mg drug, 0.5 mL hexane, 0.4 mL ethyl acetate): Clear
Solubility ([2]; DURO-TAK 87-9301 100 mg, 5 mg drug, 5 mg dodecyl amine, 0.5 mL methanol, 0.25 mL ethyl acetate): Clear
Solubility ([2]; Duro-TAK 87-2516 100 mg, 10 mg drug, 10 mg dodecyl amine, 0.5 mL methanol, 0.5 mL ethyl acetate): Clear
Solubility ([2]; Duro-TAK 87-2516 100 mg, 10 mg drug, 10 mg dodecyl amine, 1 mL methanol, 1.25 mL ethyl acetate): Clear
Solubility ([2]; Duro-TAK 87-2516 100 mg, 10 mg drug, 10 mg dodecyl amine, 1.5 mL methanol, 1 mL ethyl acetate): Clear
Solubility ([2]; Oppanol B12 1.2 g, 65 mg drug, 15.9 mL hexane): Clear
Solubility ([2]; Oppanol B12 1.2 g, 65 mg drug, 15.9 mL hexane, 65 mg dodecyl amine): Clear
Solubility ([2]; Oppanol B12 2.3 g, 130 mg drug, 32 mL hexane): Clear
compatibility with adhesives and organic solvents ([2]; Oppanol B12, DURO-TAK 87-2516, 87-9301 and 87-2052): showed compatibility
stability in donor, extraction and receiver solvent [3]: appropriate stability
SMILES: C=C1CCC(OP(=O)(O)O)CC1=CC=C1CCCC2(C)C1CCC2C(C)CCCC(C)C (stereo not drawn) [Cholecalciferol phosphate acid, cholecalciferol phosphate acid]
